In the NIST ThermoML archive (doi:10.1007/s10765-009-0566-6):

Assays:
[1] = osmotic coefficient (dimensionless); mn = molality of the nth substance listed, in mol/kg; conditions: Liquid, vapor pressure osmometry
[2] = refractive index (Na D-line) (dimensionless); mn = molality of the nth substance listed, in mol/kg; conditions: 101 kPa, Liquid, Standard Abbe refractometry

CCCCCn1cc[n+](C)c1.[Cl-] [1-methyl-3-pentylimidazolium chloride] + O
Conditions | osmotic coefficient, 298.15 K | osmotic coefficient, 308.15 K | osmotic coefficient, 318.15 K | osmotic coefficient, 328.15 K | refractive index, 298.15 K | refractive index, 308.15 K | refractive index, 318.15 K | refractive index, 328.15 K
[1], m1 = 0.014 | 0.931 | 0.938 | 0.941 | 0.949 | – | – | – | –
[1], m1 = 0.0263 | 0.889 | 0.905 | 0.911 | 0.923 | – | – | – | –
[1], m1 = 0.0391 | 0.882 | 0.887 | 0.903 | 0.908 | – | – | – | –
[1], m1 = 0.0518 | 0.871 | 0.878 | 0.885 | 0.897 | – | – | – | –
[1], m1 = 0.0634 | 0.863 | 0.868 | 0.878 | 0.886 | – | – | – | –
[1], m1 = 0.084 | 0.852 | 0.858 | 0.865 | 0.87 | – | – | – | –
[1], m1 = 0.1007 | 0.841 | 0.845 | 0.854 | 0.866 | – | – | – | –
[1], m1 = 0.1369 | 0.821 | 0.829 | 0.845 | 0.849 | – | – | – | –
[1], m1 = 0.1784 | 0.805 | 0.812 | 0.831 | 0.837 | – | – | – | –
[1], m1 = 0.2198 | 0.797 | 0.803 | 0.822 | 0.828 | – | – | – | –
[1], m1 = 0.2765 | 0.79 | 0.795 | 0.803 | 0.809 | – | – | – | –
[1], m1 = 0.3517 | 0.781 | 0.788 | 0.794 | 0.799 | – | – | – | –
[1], m1 = 0.4043 | 0.768 | 0.78 | 0.784 | 0.79 | – | – | – | –
[1], m1 = 0.5014 | 0.75 | 0.753 | 0.76 | 0.771 | – | – | – | –
[1], m1 = 0.5758 | 0.735 | 0.742 | 0.748 | 0.756 | – | – | – | –
[1], m1 = 0.8464 | 0.722 | 0.726 | 0.735 | 0.739 | – | – | – | –
[1], m1 = 1.002 | 0.71 | 0.715 | 0.723 | 0.73 | – | – | – | –
[1], m1 = 1.376 | 0.697 | 0.704 | 0.711 | 0.718 | – | – | – | –
[1], m1 = 1.797 | 0.687 | 0.691 | 0.697 | 0.704 | – | – | – | –
[2], m1 = 0.014 | – | – | – | – | 1.3331 | 1.3318 | 1.3302 | 1.3282
[2], m1 = 0.0263 | – | – | – | – | 1.3334 | 1.3321 | 1.3305 | 1.3284
[2], m1 = 0.0391 | – | – | – | – | 1.3338 | 1.3324 | 1.3308 | 1.3288
[2], m1 = 0.0518 | – | – | – | – | 1.3342 | 1.3328 | 1.3313 | 1.3291
[2], m1 = 0.0634 | – | – | – | – | 1.3344 | 1.3331 | 1.3316 | 1.3294
[2], m1 = 0.084 | – | – | – | – | 1.3351 | 1.3339 | 1.3322 | 1.3305
[2], m1 = 0.1007 | – | – | – | – | 1.3358 | 1.3344 | 1.3327 | 1.3309
[2], m1 = 0.1369 | – | – | – | – | 1.3367 | 1.3357 | 1.3336 | 1.3316
[2], m1 = 0.1784 | – | – | – | – | 1.3379 | 1.3367 | 1.3349 | 1.3328
[2], m1 = 0.2198 | – | – | – | – | 1.3392 | 1.3378 | 1.3359 | 1.3339
[2], m1 = 0.2765 | – | – | – | – | 1.3408 | 1.3397 | 1.3377 | 1.3356
[2], m1 = 0.3517 | – | – | – | – | 1.343 | 1.3416 | 1.3397 | 1.3376
[2], m1 = 0.4043 | – | – | – | – | 1.3443 | 1.343 | 1.3411 | 1.3389
[2], m1 = 0.5014 | – | – | – | – | 1.347 | 1.3457 | 1.3437 | 1.3419
[2], m1 = 0.5758 | – | – | – | – | 1.3489 | 1.3475 | 1.3457 | 1.344
[2], m1 = 0.8464 | – | – | – | – | 1.3558 | 1.3547 | 1.3523 | 1.3505
[2], m1 = 1.002 | – | – | – | – | 1.3596 | 1.3579 | 1.3557 | 1.3537
[2], m1 = 1.376 | – | – | – | – | 1.3679 | 1.3658 | 1.3639 | 1.3619
[2], m1 = 1.797 | – | – | – | – | 1.3764 | 1.3745 | 1.3721 | 1.3697
